From US20250222136A1, “GENE EDITING SYSTEM FOR TREATING USHER SYNDROME” (GenKOre, Inc., priority 2022, published 2025)

B1: MS2/MS3/MS4: engineered sgRNA, SEQ ID NO: 316 (nucleic acid)
guide: ACCGCUUCACCAAAAGCUGUCCCUUAGGGGAUUAGAACUUGAGUGAAGGUGGGCUGCUUGCAUCAGCCUAAUGUCGAGAAGUGCUUUCUUCGGAAAGUAACCCUCGAAACAAAGAAAGGAAUGCAACNNNNNNNNNNNNNNNNNNNNUUUUAUUUUUU
modifications: Engineered sgRNA with modification of MS2/MS3/MS4; misc_feature 128..147 n is a, c, g or u
B2: MS2/MS3/MS4/MS5: engineered sgRNA, SEQ ID NO: 317 (nucleic acid)
guide: ACCGCUUCACUUAGAGUGAAGGUGGGCUGCUUGCAUCAGCCUAAUGUCGAGAAGUGCUUUCUUCGGAAAGUAACCCUCGAAACAAAGAAAGGAAUGCAACNNNNNNNNNNNNNNNNNNNNUUUUAUUUUUU
modifications: Engineered sgRNA with modification of MS2/MS3/MS4/MS5; misc_feature 99..118 n is a, c, g or u

System: USH2A gene
Experiment: Indel efficiency depending on length of the guide sequence
Assay type: cell-based, human
Settings: highest value by guide length: F16 22mer, FA12 20mer, R19 24mer, R40 20mer; ver4.1 scaffold for F16, FA12, ver4.0 for R19, R40
Excerpt: Each guide sequence (F16, FA12, R19, R40) selected through Examples 2 and 3 was modified to have a guide sequence of 19- to 25-mer length based on the PAM adjacent to the protospacer sequence, and vectors expressing the same were produced, respectively, to compare the indel efficiency depending on a length of the guide sequence. As for the scaffold sequence, Cas12f1 ver4.1 was used for F16 and FA12, and Cas12f1 ver4.0 was used for R19 and R40, as selected in Example 2.2.
(§1) The day before transfection, HEK293T and ARPE19-HPV cells (80% confluency) cultured in 100 mm dishes were treated with trypsin to detach from the bottom of the dish. The detached cells were placed in 50 ml of pre-warmed medium (see Experimental Example 15 for its composition) and slowly dissolved with a pipette. 24-well plates were prepared according to the number of samples and repetitions, and 500 μl of cell suspension medium was added to each well (1/100 dilution). Then, incubation was performed overnight in a CO2 incubator at 37° C. until transfection.
(§2) The next day, when the cell confluency reached approximately 70% to 80%, 200 μl of the 500 μl medium per well was removed and the plates were placed in the incubator. 1.5 ml tubes were prepared according to the number of samples, and 200 μl of Opti-MEM was added to each tube. 1.5 μg of Cas12f1 DNA and 0.5 μg of gRNA (or a vector containing nucleic acids encoding Cas12f1 DNA and two gRNAs) were added to the tube containing Opti-MEM, and vortexed for 5 seconds (nucleic acid mixture). Then, the nucleic acid mixture and FuGENE HD were added at a ratio of 1:3, and reaction was allowed to occur at room temperature for 20 minutes (that is, in a case where the nucleic acid mixture was 2 μg, 6 μl of FuGENE HD was administered). The 24-well plate was taken out from the incubator, and 200 μl of the solution containing the nucleic acid mixture and FuGENE HD was gently added along the well wall. After shaking the plate sufficiently in an S shape, it was incubated in a CO2 incubator at 37° C. for 72 hours. After 72 hours, the cells were harvested and gDNA was extracted therefrom according to Experimental Example 8.
(§3) NGS analysis to confirm indel efficiency for the target was performed over a total of three PCR rounds.

Molecule	indel efficiency
CUUAGAAAGAAGGAUGUAUA (expressed or natural sequence) [GUIDE-USH2A-R40]	73.99%
CUUGCCAGAGAAGGAGUAGAACAA (expressed or natural sequence) [GUIDE-USH2A-R19-24 mer]	83%
UAAUGUGUACAUAUAUCAAAAC (expressed or natural sequence) [GUIDE-USH2A-F16-22 mer]	73%
UCCAUAUAUAUACAUAUAUA (expressed or natural sequence) [GUIDE-USH2A-FA12]	72.19%

System: USH2A gene (F region and R region of exon 13)
Experiment: Indel efficiency of USH2A guide RNA expression cassettes by next generation sequencing (NGS)
Assay type: cell-based, human
Parameters: Indel efficiency (%) Cas12f1 ver3.0 / Indel efficiency (%) Cas12f1 ver4.0 / Indel efficiency (%) Cas12f1 ver4.1: concentration or dose not given beside the values
Settings: USH2A F and R region guide sequences
Excerpt: A nucleotide sequence encoding the guide RNA designed based on the protospacer sequence selected in Example 2.1 was constructed into an expression cassette, which was immediately transfected to confirm indel efficiency by next generation sequencing (NGS) without the T7E1 assay. Here, the guide RNA was designed to include a U-rich tail sequence (for example, 5′-U4AU6-3′) at the 3′-end.
To confirm indel efficiency of the guide sequences of Cas12f1, a cassette containing the U6 promoter, scaffold sequence, guide sequence, and U-rich tail sequence (T4AT6) was amplified by PCR and used. The process was performed as follows.
The spacer was selected from the 20mer sequence followed by TTTA or TTTG, which are PAM of Cas12f1, and spacers whose sequences end with T were excluded. In addition, to minimize off-target effects, the spacers were designed using CRISPR RGEN TOOL by classifying them with less than 2 mismatches. In addition, the reverse complement sequence comprising a DR (direct repeat) and U-rich sequence was used as an R primer.
1% agarose gel was prepared, and the size marker and PCR products were added to the gel. Electrophoresis was performed to confirm the amplified size.
After confirming the amplified size, the gel was purified according to Experimental Example 9 to quantify the PCR products.
as §1, §2, §3
The conditions for conducting the first PCR for each region are disclosed in Tables 20 to 29 below.

Molecule	indel efficiency of cassette compared with Cas12f1 ver3.0 cassette
B1	improved in most samples

Same assay, conditions: scaffold Cas12f1 ver3.0 (SEQ ID NO: 315); expression cassette; NGS

Molecule	Indel efficiency (%) Cas12f1 ver3.0
AAUAUGCCAUACAUAUUCC (expressed or natural sequence) [GUIDE-USH2A-FA20]	2.78%
ACAGUGAUGAAUGACUCACC (expressed or natural sequence) [GUIDE-USH2A-FA10]	4.41%
AGAGUAAGAUUGGCCCCCUA (expressed or natural sequence) [GUIDE-USH2A-F05]	0.64%
AUUAUACCUUCGUGAAGCUG (expressed or natural sequence) [GUIDE-USH2A-F17]	0.02%
CUUGCCAGAGAAGGAGUAGA (expressed or natural sequence) [GUIDE-USH2A-R19]	26.08%
GCAUUGGUCAGUGUGUAAGA (expressed or natural sequence) [GUIDE-USH2A-R22]	6.32%
GGGUGAGAACAUUUAAGAUC (expressed or natural sequence) [GUIDE-USH2A-F15]	0.55%
UAAUGUGUACAUAUAUCAAA (expressed or natural sequence) [GUIDE-USH2A-F16]	4.19%
UAGACCCAUAUAACUCAGAG (expressed or natural sequence) [GUIDE-USH2A-R18]	0.46%
UAUAGAAAUACCUAGAAUUG (expressed or natural sequence) [GUIDE-USH2A-R10]	1.65%
UCCAUAUAUAUACAUAUAUA (expressed or natural sequence) [GUIDE-USH2A-FA12]	4.61%
UGUCUCGUCUAUCUUGAAUG (expressed or natural sequence) [GUIDE-USH2A-F02]	1%
UGUUCGUAUCAUCUGCAGUA (expressed or natural sequence) [GUIDE-USH2A-F03]	4.88%
UUUCUUUGCCUUGUAAUACC (expressed or natural sequence) [GUIDE-USH2A-F24]	0.04%

Same assay, conditions: scaffold Cas12f1 ver4.0 (SEQ ID NO: 316); expression cassette; NGS

Molecule	Indel efficiency (%) Cas12f1 ver4.0
AAUAUGCCAUACAUAUUCC (expressed or natural sequence) [GUIDE-USH2A-FA20]	0.58%
ACAGUGAUGAAUGACUCACC (expressed or natural sequence) [GUIDE-USH2A-FA10]	1.52%
ACUGUGUAGGAGACAAAGGA (expressed or natural sequence) [GUIDE-USH2A-R36]	3.06%
AGAGUAAGAUUGGCCCCCUA (expressed or natural sequence) [GUIDE-USH2A-F05]	1.48%
AUUAUACCUUCGUGAAGCUG (expressed or natural sequence) [GUIDE-USH2A-F17]	0.02%
CUUAGAAAGAAGGAUGUAUA (expressed or natural sequence) [GUIDE-USH2A-R40]	21.35%
CUUGCCAGAGAAGGAGUAGA (expressed or natural sequence) [GUIDE-USH2A-R19]	27.24%
GCAUUGGUCAGUGUGUAAGA (expressed or natural sequence) [GUIDE-USH2A-R22]	16.03%
UAAUGUGUACAUAUAUCAAA (expressed or natural sequence) [GUIDE-USH2A-F16]	5.87%
UAAUUCUACCACCAGCCACA (expressed or natural sequence) [GUIDE-USH2A-R26]	6.41%
UAUAGAAAUACCUAGAAUUG (expressed or natural sequence) [GUIDE-USH2A-R10]	1.20%
UGUCUCGUCUAUCUUGAAUG (expressed or natural sequence) [GUIDE-USH2A-F02]	0.23%
UGUUCGUAUCAUCUGCAGUA (expressed or natural sequence) [GUIDE-USH2A-F03]	5.89%
UUUCUUUGCCUUGUAAUACC (expressed or natural sequence) [GUIDE-USH2A-F24]	0.19%

Same assay, conditions: scaffold Cas12f1 ver4.1 (SEQ ID NO: 317); expression cassette; NGS

Molecule	Indel efficiency (%) Cas12f1 ver4.1
AAUAUGCCAUACAUAUUCC (expressed or natural sequence) [GUIDE-USH2A-FA20]	1.03%
ACAGUGAUGAAUGACUCACC (expressed or natural sequence) [GUIDE-USH2A-FA10]	1.89%
AGAGUAAGAUUGGCCCCCUA (expressed or natural sequence) [GUIDE-USH2A-F05]	4.83%
AUUAUACCUUCGUGAAGCUG (expressed or natural sequence) [GUIDE-USH2A-F17]	0.18%
CUUAGAAAGAAGGAUGUAUA (expressed or natural sequence) [GUIDE-USH2A-R40]	8.07%
CUUGCCAGAGAAGGAGUAGA (expressed or natural sequence) [GUIDE-USH2A-R19]	9.48%
GCAUUGGUCAGUGUGUAAGA (expressed or natural sequence) [GUIDE-USH2A-R22]	15.79%
UAAUGUGUACAUAUAUCAAA (expressed or natural sequence) [GUIDE-USH2A-F16]	10.78%
UCCAUAUAUAUACAUAUAUA (expressed or natural sequence) [GUIDE-USH2A-FA12]	1.29%
UGUCUCGUCUAUCUUGAAUG (expressed or natural sequence) [GUIDE-USH2A-F02]	0.03%
UGUUCGUAUCAUCUGCAGUA (expressed or natural sequence) [GUIDE-USH2A-F03]	9.89%

Same assay, conditions: target sequences located in the F region

Molecule	indel efficiency, scaffold versions compared
B2	higher indel efficiency than ver4.0

Same assay, conditions: target sequences located in the R region

Molecule	indel efficiency, scaffold versions compared
B1	higher indel efficiency than ver4.1
